PubChem BioAssay (NCI)
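These data come from cells grown in 96-well plates and exposed to compound for 48 hours at five concentrations. At the GI50, growth is halved. The concentration for full growth arrest is given as TGI.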

What was measured:
Test in all cases: inhibition of tumour cell growth, NCI panel, 48 h
[1] = test system: 786-0 renal
[2] = test system: A498 renal
[3] = test system: A549 NSCLC
[4] = test system: ACHN renal
[5] = test system: BT-549 breast
[6] = test system: CAKI-1 renal
[7] = test system: CCRF-CEM leukemia
[8] = test system: COLO 205 colon
[9] = test system: DU-145 prostate
[10] = test system: EKVX NSCLC
[11] = test system: HCC-2998 colon
[12] = test system: HCT-116 colon
[13] = test system: HCT-15 colon
[14] = test system: HOP-62 NSCLC
[15] = test system: HOP-92 NSCLC
[16] = test system: HS 578T breast
[17] = test system: HT29 colon
[18] = test system: IGROV1 ovarian
[19] = test system: LOX IMVI melanoma
[20] = test system: M14 melanoma
[21] = test system: MALME-3M melanoma
[22] = test system: MCF7 breast
[23] = test system: MDA-MB-231 breast
[24] = test system: MDA-MB-435
[25] = test system: MOLT-4 leukemia
[26] = test system: NCI-H226 lung
[27] = test system: NCI-H23 lung
[28] = test system: NCI-H460 lung
[29] = test system: NCI-H522 lung
[30] = test system: NCI/ADR-RES ovarian
[31] = test system: OVCAR-3 ovarian
[32] = test system: OVCAR-4 ovarian
[33] = test system: OVCAR-5 ovarian
[34] = test system: OVCAR-8 ovarian
[35] = test system: PC-3 prostate
[36] = test system: RXF 393 renal
[37] = test system: SF-268 CNS
[38] = test system: SF-295 CNS
[39] = test system: SF-539 CNS
[40] = test system: SK-MEL-2 melanoma
[41] = test system: SK-MEL-28 melanoma
[42] = test system: SK-MEL-5 melanoma
[43] = test system: SK-OV-3 ovarian
[44] = test system: SN12C renal
[45] = test system: SNB-19 CNS
[46] = test system: SNB-75 CNS
[47] = test system: SW-620 colon
[48] = test system: T-47D breast
[49] = test system: TK-10 renal
[50] = test system: U251 CNS
[51] = test system: UACC-257 melanoma
[52] = test system: UACC-62 melanoma
[53] = test system: UO-31 renal
[54] = test system: HL-60(TB) leukemia
[55] = test system: K-562 leukemia
[56] = test system: KM12 colon
[57] = test system: RPMI-8226 leukemia

For `Cc1ccc(S(=O)(=O)c2ccc([N+](=O)[O-])o2)cc1`, the TGI [1] was 3.26 µM, the TGI [2] was 33.9 µM and the TGI [3] was 28.1 µM. The TGI [4] was 3.03 µM, the TGI [5] was 6.16 µM and the TGI [6] was 1.54 µM. For the same molecule, the TGI [7] was 1210 nM, the TGI [8] was 2270 nM and the TGI [9] was 8.58 µM. The TGI [10] was 7.79 µM, the TGI [11] was 13.1 µM and the TGI [12] was 3.94 µM. The TGI [13] was 2.83 µM, the TGI [14] was 38.1 µM and the TGI [15] was 4.32 µM. It also gave a TGI [16] of 13.4 µM, a TGI [17] of 3.2 µM and a TGI [18] of 3.37 µM. It also gave a TGI [19] of 2.91 µM, a TGI [20] of 3.82 µM and a TGI [21] of 2.64 µM. For the same molecule, the TGI [22] was 7.13 µM, the TGI [23] was 4.78 µM and the TGI [24] was 3.69 µM. It also gave a TGI [25] of over 100 µM, a TGI [26] of 31.5 µM and a TGI [27] of 13 µM. The TGI [28] was 33.4 µM, the TGI [29] was 0.578 µM and the TGI [30] was 5.36 µM. It also gave a TGI [31] of 3.71 µM, a TGI [32] of over 22 µM and a TGI [33] of 4.77 µM. The TGI [34] was 1.82 µM, the TGI [35] was 3.28 µM and the TGI [36] was 3.33 µM. It also gave a TGI [37] of 46.6 µM, a TGI [38] of 43.9 µM and a TGI [39] of 3.34 µM. The TGI [40] was 28.7 µM, the TGI [41] was 3.81 µM and the TGI [42] was 23 µM. It also gave a TGI [43] of 35.2 µM, a TGI [44] of 35.5 µM and a TGI [45] of 40.4 µM. For the same molecule, the TGI [46] was 11.8 µM, the TGI [47] was 1730 nM and the TGI [48] was 6.24 µM. The TGI [49] was 3.04 µM, the TGI [50] was 17.7 µM and the TGI [51] was 3.61 µM. It also gave a TGI [52] of 6.17 µM and a TGI [53] of 2780 nM.

`CN1CCN(c2cc3nc4ccccc4n(-c4ccc(Cl)cc4)c-3cc2=N)CC1` gave a GI50 [1] of 31.4 µM, a TGI [1] of over 100 µM and a GI50 [2] of over 100 µM. It also gave a TGI [2] of over 100 µM, a GI50 [3] of 24.1 µM and a TGI [3] of 60.8 µM. For the same molecule, the GI50 [4] was 23.4 µM, the TGI [4] was over 100 µM and the GI50 [5] was 41.6 µM. The TGI [5] was over 100 µM, the GI50 [6] was 24.6 µM and the TGI [6] was 82 µM. It also gave a GI50 [8] of over 100 µM, a TGI [8] of over 100000 nM and a GI50 [9] of 37.8 µM. The TGI [9] was over 100 µM, the GI50 [10] was 30 µM and the TGI [10] was over 100 µM. The GI50 [11] was 23.1 µM, the TGI [11] was 54.9 µM and the GI50 [12] was 22.2 µM. For the same molecule, the TGI [12] was 57.2 µM, the GI50 [13] was 23.4 µM and the TGI [13] was 81.3 µM. The TGI [54] was 4.35 µM, the GI50 [14] was 23.3 µM and the TGI [14] was 65 µM. It also gave a GI50 [15] of 28.7 µM, a TGI [15] of 94.8 µM and a GI50 [16] of 20.7 µM. It also gave a TGI [16] of 95.7 µM, a GI50 [17] of over 100 µM and a TGI [17] of over 100 µM. The GI50 [18] was 17.2 µM, the TGI [18] was 53.5 µM and the GI50 [55] was 356 nM. For the same molecule, the TGI [55] was 23.5 µM, the GI50 [56] was 16.6 µM and the TGI [56] was 43.8 µM. For the same molecule, the GI50 [19] was 15.7 µM, the TGI [19] was 36.6 µM and the GI50 [20] was 21.4 µM. The TGI [20] was 43.8 µM, the GI50 [21] was 17.2 µM and the TGI [21] was 33.1 µM. For the same molecule, the GI50 [22] was 35.6 µM, the TGI [22] was over 100 µM and the GI50 [23] was 10.6 µM. For the same molecule, the TGI [23] was 49.9 µM, the GI50 [24] was 17.5 µM and the TGI [24] was 32.6 µM. The GI50 [25] was 12.8 µM, the TGI [25] was 32 µM and the GI50 [26] was 60.7 µM. For the same molecule, the TGI [26] was over 100 µM, the GI50 [27] was 15.9 µM and the TGI [27] was 32.9 µM. It also gave a GI50 [28] of 39.6 µM, a TGI [28] of over 100 µM and a GI50 [29] of 21.5 µM. For the same molecule, the TGI [29] was 52.6 µM, the GI50 [30] was 32.1 µM and the TGI [30] was over 100 µM. For the same molecule, the GI50 [31] was 2780 nM, the TGI [31] was 16.7 µM and the GI50 [33] was 24.1 µM. For the same molecule, the TGI [33] was 60.8 µM, the GI50 [34] was 13.7 µM and the TGI [34] was 38.4 µM. For the same molecule, the GI50 [35] was 16.1 µM, the TGI [35] was 86.8 µM and the GI50 [57] was 12.1 µM. The TGI [57] was 35.1 µM, the GI50 [36] was 20.3 µM and the TGI [36] was 99.8 µM. The GI50 [37] was 32.1 µM, the TGI [37] was over 100 µM and the GI50 [38] was 23.4 µM. For the same molecule, the TGI [38] was 59.5 µM, the GI50 [39] was 26.6 µM and the TGI [39] was 73.7 µM. The GI50 [40] was 33.7 µM, the TGI [40] was over 100 µM and the GI50 [42] was 16.3 µM. The TGI [42] was 32.7 µM, the GI50 [43] was over 100 µM and the TGI [43] was over 100 µM. The GI50 [44] was 19.4 µM, the TGI [44] was 41.4 µM and the GI50 [45] was over 100 µM. It also gave a TGI [45] of over 100 µM, a GI50 [47] of 23.9 µM and a TGI [47] of over 100000 nM. It also gave a GI50 [48] of over 100 µM, a TGI [48] of over 100 µM and a GI50 [49] of 36.1 µM. It also gave a TGI [49] of over 100 µM, a GI50 [50] of 18.9 µM and a TGI [50] of 49.7 µM. The GI50 [51] was 19.2 µM, the TGI [51] was 39.2 µM and the GI50 [52] was 22.9 µM. It also gave a TGI [52] of 54.8 µM, a GI50 [53] of 29.2 µM and a TGI [53] of over 100000 nM.
